# Laboratory results from the supplement of paper PMC11451515.
# Tests used:
# Experiment in all cases: AUC of viability dose-response curve (% viability x log10 dose units); higher = less sensitive
# Details in all cases: 48 h
# NOMO1 = system: NOMO1
# Procedure, shortened: (§1)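 Leukemia cells adapted to each medium were seeded in 1536-well plates (500 or 1000 cells/well) and given library compounds in DMSO for 48 h at 37°C. The 11 threefold doses spanned 47 μM to 0.79 nM, and CellTiter-Glo One luminescence was normalised per plate to DMSO and cell-free wells before four-parameter log-logistic fitting on log10 dose. Area under the curve was integrated with the trapezoidal rule, scaling curves above full viability and removing curves that failed quality control.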
# SEM cells = system: SEM cells
# Procedure, shortened: as §1
# P12-Ichikawa = system: P12-Ichikawa
# Procedure, shortened: as §1
# [1] = RPMI 5 mM glucose + 10% dialyzed FBS
SMILES,AUC of viability dose-response curve (NOMO1; HPLM + 10% dialyzed FBS),AUC of viability dose-response curve (NOMO1; RPMI 5 mM glucose + 10% FBS),AUC of viability dose-response curve (NOMO1; [1]),AUC of viability dose-response curve (SEM cells; HPLM + 10% dialyzed FBS),AUC of viability dose-response curve (SEM cells; RPMI 5 mM glucose + 10% FBS),AUC of viability dose-response curve (SEM cells; [1]),AUC of viability dose-response curve (P12-Ichikawa; HPLM + 10% dialyzed FBS),AUC of viability dose-response curve (P12-Ichikawa; RPMI 5 mM glucose + 10% FBS),AUC of viability dose-response curve (P12-Ichikawa; [1])
Cc1[nH]c(/C=C2\C(=O)Nc3ccc([S+](=O)([O-])N(C)c4cccc(Cl)c4)cc32)c(C)c1C(=O)N1CCN(C)CC1,451,462,456,393,379,368,436,430,432
CC#C[C@]1(O)CC[C@H]2[C@@H]/3CCC/4=C/C(=O)CCC4=C3[C@H](C[C@]12C)C5=CC=C(C=C5)N(C)C,399,364,370,384,426,432,456,422,411
NC1CCC(N[C@@H]2C[C@H]2c2ccccc2)CC1 (some centres not stated),450,456,450,409,444,441,463,461,467
CNC(=O)[C@H](Cc1ccccc1)NC(=O)[C@H](CC(C)C)[C@H](CSc1cccs1)C(=O)NO,433,402,415,405,389,340,409,373,386
Cc1cc(O)c2c3c4c(cc(O)c13)C(C)(C)C(=O)c1c(O)cc(O)c(c1-4)C2=O,450,451,462,457,465,450,460,457,454
CC1(C)[C@@H](O[C@H]2O[C@H](C(=O)O)[C@@H](O)[C@H](O)[C@H]2O[C@@H]2O[C@H](C(=O)O)[C@@H](O)[C@H](O)[C@H]2O)CC[C@]2(C)[C@H]3C(=O)C=C4[C@@H]5C[C@@](C)(C(=O)O)CC[C@]5(C)CC[C@@]4(C)[C@]3(C)CC[C@@H]12,407,455,452,383,437,450,473,468,470
Cc1ccc(NC(=O)C2(c3ccc4c(c3)OC(F)(F)O4)CC2)nc1-c1cccc(C(=O)O)c1,252,246,264,241,202,232,268,253,260
C[C@H](NC(=O)C(=O)Nc1ccccc1C(C)(C)C)C(=O)N[C@@H](CC(=O)O)C(=O)COc1c(F)c(F)cc(F)c1F,428,445,450,395,391,390,440,427,425
